These are literature values, as cited in US11129865B2, “NEUPANEX®: neuroprotective, neuroregenerational, and neurogenesis supporting supplement combination” (priority 2017, dated 2021).

One data set relates to heme oxygenase-1. The note with it: astrocytes.
The test system of the next data set is heat shock protein 60. To be noted: astrocytes.
For data set [1] the following is noted: rodents, increased dietary cholesterol.
For data set [2] the following is noted: supplementary dietary cholesterol.
For another data set, the system named is hippocampal cell culture. To be noted: pretreatment, low to moderate concentration (10 nm-100 nm) in culture medium; voltage clamp and toxic NMDA insult.
The subject of data set [3] is IL-6 and IL-1 alpha and TNF-alpha.

On to `CC(=O)O[C@H](CC(=O)[O-])C[N+](C)(C)C` [acetyl-L-carnitine], for which the “levels of heme oxygenase-1” value in the data set on heme oxygenase-1 was “increased levels of heme oxygenase-1 were induced in a dose- and time-dependent manner”. In the data set on heat shock protein 60, the “heat shock protein 60 expression” value was “up-regulation of heat shock protein 60”.

For the molecule `CC(C)CCC[C@@H](C)[C@H]1CC[C@H]2[C@@H]3CC=C4C[C@@H](O)CC[C@]4(C)[C@H]3CC[C@]12C` [cholesterol], in data set [1], the brain cholesterol result is “dramatically increased brain cholesterol”. For the same molecule, the “autistic behaviors of children with SLOS” value in data set [2] is reported as “reduced or even eliminated”.

In the case of Vitamin D, the “Increases IL-10” value in the data set with IL-10 is recorded as “Vitamin D: Increases IL-10 (43%), Decreases IL-6 & TNF-Alpha,”. Moreover, the “neuroprotective effect compared to controls” value in the data set on hippocampal cell culture is recorded as “dramatic neuroprotective effect”. The “reduction in inflammatory cytokines IL-6, IL-1 alpha and TNF-alpha, concentration dependence” value in data set [3] is recorded as “lower concentrations of vitamin D were more effective than the higher concentrations”.
